Experimental data as given in patent US5160526A, “Alkene stabilizers for 3-isothiazolone compounds” (priority 1991, dated 1992).

Type: physicochemical
Settings: 2-propanol/water systems

Row | SMILES | stabilizing properties (in words)
1 | C1=CC2C3C=CC(C3)C2C1 (centres unmarked) [dicylopentadiene] | failed to show any stabilizing properties
2 | C1=Cc2ccccc2C1 [indene] | failed to show any stabilizing properties
